{"source": "ChEMBL document CHEMBL5604063", "about": "“ASAP - DENV-2 NS2B-NS3 protease fluorescence dose response” (2024)", "data": [{"molecular_target": "Genome polyprotein (dengue virus type 2, UniProt P29990)", "sequence (P29990 1346-1475 limits assumed)": "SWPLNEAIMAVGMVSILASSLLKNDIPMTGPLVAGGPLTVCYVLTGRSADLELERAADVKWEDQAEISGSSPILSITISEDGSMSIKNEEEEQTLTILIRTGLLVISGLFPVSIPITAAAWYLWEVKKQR", "sequence (P29990 1476-2093 limits assumed)": "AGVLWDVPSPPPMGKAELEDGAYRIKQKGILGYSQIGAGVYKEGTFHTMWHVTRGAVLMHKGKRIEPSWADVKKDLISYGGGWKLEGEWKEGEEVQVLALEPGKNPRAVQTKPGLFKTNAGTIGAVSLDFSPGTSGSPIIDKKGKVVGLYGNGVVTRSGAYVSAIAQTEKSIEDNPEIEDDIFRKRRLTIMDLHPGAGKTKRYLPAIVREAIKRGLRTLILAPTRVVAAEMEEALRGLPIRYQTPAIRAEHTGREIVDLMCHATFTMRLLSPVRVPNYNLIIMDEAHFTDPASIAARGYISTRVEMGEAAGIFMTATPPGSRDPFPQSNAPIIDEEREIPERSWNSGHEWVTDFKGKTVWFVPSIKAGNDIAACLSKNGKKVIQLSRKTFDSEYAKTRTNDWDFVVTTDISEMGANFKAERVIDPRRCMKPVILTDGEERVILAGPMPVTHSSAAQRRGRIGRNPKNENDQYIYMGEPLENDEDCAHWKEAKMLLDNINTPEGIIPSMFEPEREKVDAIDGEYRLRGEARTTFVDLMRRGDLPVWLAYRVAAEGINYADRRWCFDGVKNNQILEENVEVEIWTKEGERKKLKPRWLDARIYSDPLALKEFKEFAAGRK", "format": "functional, Thailand/16681/1984", "units": {"IC50": "µM"}, "values": [{"compound": "CCn1cc(C(=O)NC)nc(N2CC[C@@H](CO)C2)c1=O", "IC50": "> 99.5"}, {"compound": "CC(=O)N[C@@H](C(=O)Nc1cccc(CN)c1)c1ccc(OCc2ccccc2)cc1", "IC50": "> 99.5"}, {"compound": "NCc1cccc(CNC(=O)[C@H](NC(=O)OCc2ccccc2)c2ccc(OCc3ccccc3)cc2)c1", "IC50": 15.3}, {"compound": "CCn1cc(C#N)nc(N2CC[C@@H](CO)C2)c1=O", "IC50": "> 99.5"}, {"compound": "NCc1cccc(NC(=O)[C@H]2c3ccc(OCc4ccccc4)cc3CCN2C(=O)OCc2ccccc2)c1", "IC50": "> 99.5"}, {"compound": "NCc1cccc(NC(=O)[C@@H]2c3ccsc3CCN2C(=O)OCc2ccccc2)c1", "IC50": "> 99.5"}, {"compound": "O=C(O)c1cc2c(cc1NS(=O)(=O)c1ccc(Oc3ccccc3Cl)cc1)CCC2", "IC50": 7.97}, {"compound": "CC(C)(C)Oc1ccc(S(=O)(=O)Nc2ccc(Cl)cc2C(=O)O)cc1", "IC50": "> 99.5"}, {"compound": "NCc1cccc(NC(=O)[C@@H](NC(=O)OCc2ccccc2)c2ccc(-c3ccccc3F)cc2)c1", "IC50": 10.4}, {"compound": "NCc1cc(Cl)ccc1NS(=O)(=O)c1ccc(Oc2ccccc2Cl)cc1", "IC50": "> 99.5"}, {"compound": "COC(=O)c1cc(Cl)ccc1NS(=O)(=O)c1ccc(Oc2ccccc2Cl)cc1", "IC50": "> 99.5"}, {"compound": "O=C(O)[C@H]1CCCC[C@@H]1NS(=O)(=O)c1ccc(Oc2ccccc2Cl)cc1", "IC50": "> 99.5"}, {"compound": "O=C(NCC1CC1)c1cc(Cl)cc(NS(=O)(=O)c2ccc(Oc3ccccc3Cl)cc2)c1", "IC50": 23.5}, {"compound": "O=c1c(N2CC[C@H](CO)C2)nccn1C1CC1", "IC50": "> 99.5"}, {"compound": "O=C(O)[C@@H]1CC2(CC[C@@H]1NS(=O)(=O)c1ccc(Oc3ccccc3Cl)cc1)CC2", "IC50": "> 99.5"}, {"compound": "O=C(NCC(F)(F)F)c1cc(Cl)c(F)cc1NS(=O)(=O)c1ccc(Oc2ccccc2Cl)cc1", "IC50": 5.18}, {"compound": "COC(=O)c1cc(Cl)ccc1NS(=O)(=O)c1ccc(Cl)nc1", "IC50": "> 99.5"}, {"compound": "NCc1cccc(NC(=O)CN(C(=O)OCc2ccccc2)c2ccc(OCc3ccccc3)cc2)c1", "IC50": 34.9}, {"compound": "COc1cc(N[C@@H](C(=O)N2CCc3ccc(OC(F)(F)F)cc32)c2ccc(Cl)cc2)cc(OCCCC(=O)O)c1", "IC50": 14.2}, {"compound": "NCc1cccc(NC(=O)[C@@H](NC(=O)OCc2ccccc2)c2cccnc2)c1", "IC50": "> 99.5"}, {"compound": "COc1ccc(S(=O)(=O)Nc2ccc(Cl)cc2C(=O)O)cc1", "IC50": "> 99.5"}, {"compound": "O=C(O)c1cc(Cl)ccc1NS(=O)(=O)c1ccc(Br)cc1", "IC50": "> 99.5"}, {"compound": "NCc1cccc(NC(=O)c2cc(OCc3ccccc3)ccc2CNC(=O)OCc2ccccc2)c1", "IC50": 24.8}, {"compound": "O=C(O)c1cc(Cl)ccc1S(=O)(=O)Nc1ccc(Oc2ccccc2Cl)cc1", "IC50": 16.8}, {"compound": "O=C(O)[C@@H]1CCCC[C@H]1NS(=O)(=O)c1ccc(Oc2ccccc2Cl)cc1", "IC50": "> 99.5"}, {"compound": "O=C(O)c1cc(F)c(F)cc1NS(=O)(=O)c1ccc(Oc2ccccc2Cl)cc1", "IC50": 11.2}, {"compound": "O=C(N[C@@H]1CCc2cn[nH]c2C1)c1cccc2c1NC(=O)[C@]1(CCCN1)C2", "IC50": "> 99.5"}, {"compound": "O=C(c1cc(Cl)ccc1NS(=O)(=O)c1ccc(Oc2ccccc2Cl)cc1)N1CCC[C@H](O)C1", "IC50": 63.6}, {"compound": "CN(C(=O)[C@@H](NC(=O)OCc1ccccc1)c1ccc(OCc2ccccc2)cc1)c1cccc(CN)c1", "IC50": "> 99.5"}, {"compound": "O=C(O)c1nscc1NS(=O)(=O)c1ccc(Oc2ccccc2Cl)cc1", "IC50": 63.2}, {"compound": "OC[C@H]1CCN(c2ccnc(C(F)F)c2)C1", "IC50": "> 99.5"}, {"compound": "O=C(NCc1cnn(CCO)c1)c1cccc2c1NC(=O)[C@]1(CCCN1)C2", "IC50": "> 99.5"}, {"compound": "O=C(O)c1cc(NS(=O)(=O)c2ccc(Oc3ccccc3Cl)cc2)ccc1Cl", "IC50": "> 99.5"}, {"compound": "CCn1ccnc(N2C[C@@H](OC(=O)OC)[C@H](c3c[nH]c4ccccc34)C2)c1=O", "IC50": "> 99.5"}, {"compound": "Cc1cccc([C@@H](NC(=O)OCc2ccccc2)C(=O)Nc2cccc(CN)c2)n1", "IC50": "> 99.5"}, {"compound": "Cn1cc(CN2CCC(c3c[nH]c4cccnc34)CC2)c2ccccc21", "IC50": "> 99.5"}, {"compound": "CC(C)(C)OC(=O)NCc1cccc(NC(=O)[C@@H](NC(=O)OCc2ccccc2)c2cccc(O)c2)c1", "IC50": "> 99.5"}, {"compound": "Cc1cc(C=O)c(C)n1-c1cccc(C(=O)N2CCN(C)CC2)c1", "IC50": "> 99.5"}, {"compound": "O=C(N[C@@H](C(=O)N[C@H]1CCCNC1)c1ccc(OCc2ccccc2)cc1)OCc1ccccc1", "IC50": "> 99.5"}, {"compound": "O=C(O)[C@@H]1CCCC[C@@H]1NS(=O)(=O)c1ccc(Oc2ccccc2Cl)cc1", "IC50": "> 99.5"}, {"compound": "NCc1ccc(C[C@H](NC(=O)OCc2ccccc2)C(=O)Nc2cccc(CN)c2)cc1", "IC50": "> 99.5"}, {"compound": "COc1ccc(S(=O)(=O)Nc2cc(F)c(Cl)cc2C(=O)O)cc1", "IC50": "> 99.5"}, {"compound": "COc1cc(NS(=O)(=O)c2ccc(Oc3ccccc3Cl)cc2)c(C(=O)O)cc1Cl", "IC50": 8.67}, {"compound": "C[C@@H](CS(C)(=O)=O)NC(=O)c1cc(Cl)ccc1NS(=O)(=O)c1ccc(Oc2ccccc2Cl)cc1", "IC50": 80.9}, {"compound": "Cc1cc(C(=O)N[C@@H]2CC[C@@H]3CN(C)C[C@@H]32)sc1C=O", "IC50": "> 99.5"}, {"compound": "Cc1ncc(-c2ccc([C@@H](NC(=O)OCc3ccccc3)C(=O)Nc3cccc(CN)c3)cc2)s1", "IC50": 29.4}, {"compound": "CCn1ccnc(N(C)[C@@H](CO)Cc2c[nH]c3ccccc23)c1=O", "IC50": "> 99.5"}, {"compound": "OC[C@H]1CCN(c2cnc3ccccc3n2)C1", "IC50": "> 99.5"}, {"compound": "CCn1ccnc(N2C[C@H](c3c[nH]c4ccccc34)[C@H](OC(C)=O)C2)c1=O", "IC50": "> 99.5"}, {"compound": "NCc1ccc2c(c1)N(C(=O)[C@@H](NC(=O)OCc1ccccc1)c1ccc(OCc3ccccc3)cc1)CC2", "IC50": "> 99.5"}]}]}
